Patent US5872207A, “N-terminal-marked peptides immobilized on glass beads and method of preparation and method of use thereof” (Sanofi Pharmaceuticals, Inc., priority 1995, dated 1999)
Ends that are not written are not given here. * marks the point of attachment. Hcp = 3-(7-hydroxy-4-coumarinyl)propionyl, N-terminal fluorescent marker, O=C(CCc1cc(=O)oc2cc(O)ccc12)*; silane glass bead = not defined here; Ahx = NCCCCCC(=O)O

System: recombinant truncated collagenase
Test: Bioassay: cleavage of immobilized peptide by recombinant truncated collagenase, fluorescence of supernatant
Type: biochemical
Settings: collagenase 10 nM, immobilized peptide 7.5 mg/mL, pH 7.5, 30-60 minutes; excitation 355 nm, emission 460 nm; mean of two measurements
Excerpt: In a second process aspect the invention is a biochemical assay method which comprises reacting in aqueous medium a protease and a substrate peptide or peptide having an amino acid-like moiety in place of an amino acid moiety thereof immobilized on glass beads by a C-terminal linker-anchor and marked by an N-terminal fluorescent marker, separating the resulting glass beads from the supernatant liquid, measuring the fluorescence of the supernatant liquid, and determining from the measured fluorescence the extent of cleavage of the substrate by the protease. By an additional step the site of cleavage of the substrate by the protease can be determined by sequential amino acid analysis.
The protease used was recombinant truncated collagenase of molecular weight 19,000, which was stored at 4° C. as a 10 μM stock aqueous solution and diluted to 30 nM just prior to carrying out the assay with aqueous buffer solution containing tromethamine (TRIS, 50 mM), sodium chloride solution (0.2M), calcium chloride (10 mM), and octoxynol-9 to 10 (Triton X-100, 0.1% v/v), whose pH was adjusted to 7.5 with aqueous sodium hydroxide solution and which was filtered and stored at 4° C. A 2- to 3-mg sample of the immobilized peptide was weighed into a 1.5-mL polypropylene microfuge tube. Sufficient buffer solution was added with vortexing to wet the immobilized peptide and make the concentration thereof 7.5 mg/mL. Sufficient collagenase solution was added to make the concentration thereof 10 nM, the tube was vortexed mechanically for 30-60 minutes, and the reaction was stopped by centrifuging. Part of the supernatant solution (200 μL) was transferred to a well of a 96-well plate. Fluorescence was measured at an excitation wavelength of 355 nm and an emission wavelength of 460 nm. The following mean fluorescence values from two measurements were obtained from the immobilized peptides of Formulas IIIa-r.

Row | Substance | Mean Fluorescence Value ± Deviation
1 | IIIa (Hcp-GPLAMF; not fully specified (C-terminus); also: C-terminus linked via NH(CH2)3Si(OR)2O anchor to glass bead) | 2042.5 ± 13
2 | IIIb (Hcp-GPLAMF; not fully specified (C-terminus); also: C-terminus linked via NH(CH2)3Si(OR)2O anchor to glass bead) | 3824.5 ± 9
3 | IIIc (Hcp-GPLAMF; not fully specified (C-terminus); also: C-terminus linked via NH(CH2)3Si(OR)2O anchor to glass bead) | 5733.5 ± 132
4 | IIId (Hcp-GPLAMF; not fully specified (C-terminus); also: C-terminus linked via NH(CH2)3Si(OR)2O anchor to glass bead) | 6157.0 ± 72
5 | IIIe (Hcp-GPLAMF; not fully specified (C-terminus); also: C-terminus linked via NH(CH2)3Si(OR)2O anchor to glass bead) | 5838.5 ± 170
6 | IIIf (Hcp-GPLAMF; not fully specified (C-terminus); also: C-terminus linked via NH(CH2)3Si(OR)2O anchor to glass bead) | 7559.5 ± 2551
7 | IIIg (Hcp-GPLAMF; not fully specified (C-terminus); also: C-terminus linked via NH(CH2)3Si(OR)2O anchor to glass bead) | 5374.5 ± 53
8 | IIIh (Hcp-GPLAMF-{Ahx-Ahx-Ahx-Ahx-Ahx-Ahx-Ahx-Ahx-silane glass bead}; not fully specified; reading uncertain; also: C-terminus linked via NH(CH2)3Si(OR)2O anchor to glass bead) | 4723.5 ± 213
9 | IIIi (Hcp-GPLAMF-{Ahx-Ahx-Ahx-Ahx-Ahx-Ahx-Ahx-Ahx-Ahx-silane glass bead}; not fully specified; reading uncertain; also: C-terminus linked via NH(CH2)3Si(OR)2O anchor to glass bead) | 4238.5 ± 192
10 | IIIj (Hcp-GPLAMF-{Ahx-Ahx-Ahx-Ahx-Ahx-Ahx-Ahx-Ahx-Ahx-Ahx-silane glass bead}; not fully specified; reading uncertain; also: C-terminus linked via NH(CH2)3Si(OR)2O anchor to glass bead) | 3662.5 ± 23
11 | IIIk (Hcp-APLALF; not fully specified (C-terminus); also: C-terminus linked via NH(CH2)3Si(OR)2O anchor to glass bead) | 3316.0 ± 57
12 | IIIl (Hcp-GALALF; not fully specified (C-terminus); also: C-terminus linked via NH(CH2)3Si(OR)2O anchor to glass bead) | 707.9 ± 266
13 | IIIm (Hcp-GPAALF; not fully specified (C-terminus); also: C-terminus linked via NH(CH2)3Si(OR)2O anchor to glass bead) | 4283.0 ± 150
14 | IIIn (Hcp-GPLALF; not fully specified (C-terminus); also: C-terminus linked via NH(CH2)3Si(OR)2O anchor to glass bead) | 2964.5 ± 136
15 | IIIo (Hcp-GPLAAF; not fully specified (C-terminus); also: C-terminus linked via NH(CH2)3Si(OR)2O anchor to glass bead) | 328.1 ± 0
16 | IIIp (Hcp-GPLALA; not fully specified (C-terminus); also: C-terminus linked via NH(CH2)3Si(OR)2O anchor to glass bead) | 1913.5 ± 63
17 | IIIq (Hcp-AAALWAA; not fully specified (C-terminus); also: C-terminus linked via NH(CH2)3Si(OR)2O anchor to glass bead) | 379.5 ± 115

Same assay, conditions: immobilized peptides having the linker (Acp)7 (Formulas IIIg and IIIk-r)

Row | Substance | extent of cleavage
18 | IIIg (Hcp-GPLAMF; not fully specified (C-terminus); also: C-terminus linked via NH(CH2)3Si(OR)2O anchor to glass bead) | underwent cleavage to the greatest extent

Biological target: monoclonal antibody against β-endorphin
Test: not given
Settings: Lam et al., Nature 354, 82-84 (1991); cited from earlier work

Row | Substance | Ki [nM]
19 | YGGFL | 17.5 ± 3.2
20 | YGGFQ | 15 ± 1.7

System: mouse monoclonal antibody 3E7
Test: not given
Settings: Fodor et al., Science 251, 767-773 (1991); checkerboard on glass plate, epifluorescence microscope; cited from earlier work

Row | Substance | binding / detection by antibody 3E7
21 | YGGFL | showed fluorescence
